Reference: ChEMBL document CHEMBL1629646, “Continuous cefazolin infusion to treat bone and joint infections: clinical efficacy, feasibility, safety, and serum and bone concentrations” (Antimicrob Agents Chemother, 2009)
In brackets after ≈: the same amount, converted by molar mass.

Columns and labels:
[1] = test system: Nucleic Acid; test: Ratio of drug level in patient bone with bone and joint infection to MIC90 for drug-susceptible Staphylococci; format: functional
[2] = test system: Staphylococcus; test: Ratio of drug level in patient serum with bone and joint infection to MIC90 for drug-susceptible Staphylococci
[3] = Drug level in patient serum with bone and joint infection at 60 to 80 mg/kg/day, iv administered as continuous infusion for 42 days measured from day 11 to 21 by agar disk diffusion assay; format: ADME, organism-based; design: route intravenous; details: human, read-out: Drug uptake
[4] = Drug level in patient bone with bone and joint infection measured per gram of tissue at 60 to 80 mg/kg/day, iv administered as continuous infusion for 42 days measured on day 7 by agar disk diffusion assay; format: ADME, organism-based, Bone element; design: route intravenous; details: human, in vivo, 1008 h
[5] = test system: Staphylococcus; test: Antimicrobial activity against methicillin-susceptible Staphylococcus; format: functional
[6] = test system: Streptococcus; test: Antimicrobial activity against Streptococcus; format: functional
[7] = Drug level in patient serum with bone and joint infection at 60 to 80 mg/kg/day, iv administered as continuous infusion for 42 days measured from day 2 to 10 by agar disk diffusion assay; format: ADME, organism-based; design: route intravenous; details: human, read-out: Drug uptake
[8] = Ratio of drug level in bone to serum in patient with bone and joint infection at 60 to 80 mg/kg/day, iv administered as continuous infusion for 42 days; format: ADME, organism-based; design: route intravenous; details: human
[9] = test system: Bacillus pumilus; test: Antimicrobial activity against Bacillus pumilus SJ1554; format: functional

Cc1nnc(SCC2=C(C(=O)O)N3C(=O)[C@@H](NC(=O)Cn4cnnn4)[C@H]3SC2)s1 [CEFAZOLIN]
Ratio [1]: 5
Ratio [2]: 60.8
concentration at 1008 h [3]: 57 µg/mL
bone concentration [4]: 13.5 µg/g
MIC90 [5]: 1 µg/mL (≈ 2.2 µM)
MIC90 [6]: 0.1 µg/mL (≈ 0.22 µM)
concentration at 1008 h [7]: 63 µg/mL
Kp at 1008 h [8]: 0.25

C[C@@H]1O[C@@H]1P(=O)(O)O [FOSFOMYCIN]
MIC [9]: > 512 µg/mL

CO[C@H]1/C=C/O[C@@]2(C)Oc3c(C)c(O)c4c(O)c(c(/C=N/N5CCN(C)CC5)c(O)c4c3C2=O)NC(=O)/C(C)=C\C=C\[C@H](C)[C@H](O)[C@@H](C)[C@@H](O)[C@@H](C)[C@H](OC(C)=O)[C@@H]1C [RIFAMPIN]
MIC [9]: > 128 µg/mL
